Key:
Assay type in all cases: ADME
[1] = GSH reactivity in pH 7.4 phosphate buffer assessed as change in gibbs free energy at 1 uM in presence of glutathione measured up to 120 mins by LC/MS analysis; settings: pH 7.4, 2 h
[2] = GSH reactivity in pH 7.4 phosphate buffer assessed as pseudo first-order rate constant at 1 uM in presence of glutathione measured up to 120 mins by LC/MS analysis; settings: pH 7.4, 2 h
[3] = GSH reactivity in pH 7.4 phosphate buffer assessed as half life at 1 uM in presence of glutathione measured up to 120 mins by LC/MS analysis; settings: phosphate buffer with glutathione

SMILES	deltaG [1] [kcal/mol]	K [2]	half-life at 1 µM [3] [h]
CCN(CC)C/C=C/C(=O)Nc1ccccc1	24.1		
O=C(/C=C/CN1CCCC1)Nc1ccccc1	24.1		
CN(C)CC/C=C/C(=O)Nc1ccccc1	24.7		
C=C(C(=O)Nc1ccccc1)C(F)(F)F	22.6		
O=C(/C=C/CN1CC(F)(F)C(F)(F)C1)Nc1ccccc1	> 24.7		
C=CC(=O)Nc1ccccc1	24.1		
O=C(/C=C/CN1CC(F)C1)Nc1ccccc1		< 1.35 10^-3/min	
C=C(Cl)C(=O)Nc1ccccc1	21.6	231 10^-3/min	0.05
CN(C/C=C/C(=O)Nc1ccccc1)CCF		2.13 10^-3/min	5.43
C=C(CN(C)C)C(=O)Nc1ccccc1	< 21.4		
CN(C)C/C=C/C(=O)Nc1ccccc1	23.9		
O=C(/C=C/C(F)F)Nc1ccccc1	23.3		
